Reference: PubChem BioAssay (NCI)
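Following 48 hours of exposure in 96-well plates, responses at five concentrations were used to interpolate endpoints linearly. Definition used: TGI = concentration required for complete inhibition of growth.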

Legend:
Assay in all cases: NCI tumour cell line growth inhibition, 48 h
A498 renal = tested on: A498 renal
COLO 205 colon = tested on: COLO 205 colon
DU-145 prostate = tested on: DU-145 prostate
EKVX NSCLC = tested on: EKVX NSCLC
HOP-62 NSCLC = tested on: HOP-62 NSCLC
MCF7 breast = tested on: MCF7 breast
OVCAR-4 ovarian = tested on: OVCAR-4 ovarian
OVCAR-8 ovarian = tested on: OVCAR-8 ovarian
SN12C renal = tested on: SN12C renal
TK-10 renal = tested on: TK-10 renal

| SMILES | TGI (A498 renal) [µM] | TGI (COLO 205 colon) [µM] | TGI (DU-145 prostate) [µM] | TGI (EKVX NSCLC) [µM] | TGI (HOP-62 NSCLC) [µM] | TGI (MCF7 breast) [µM] | TGI (OVCAR-4 ovarian) [µM] | TGI (OVCAR-8 ovarian) [µM] | TGI (SN12C renal) [µM] | TGI (TK-10 renal) [µM] |
| --- | --- | --- | --- | --- | --- | --- | --- | --- | --- | --- |
| NC(=S)N=Nc1c(O)cc(Nc2ccc(Cl)cc2Cl)c2ccccc12 | > 100 | > 100 | > 100 | 94.4 | 22.4 | > 100 | > 100 | 93.9 | > 100 | > 100 |
| O=C(/C=C1\C[C@H]2C=Nc3ccccc3C(=O)N2C1)NCCCCCNC(=O)/C=C1\C[C@H]2C=Nc3ccccc3C(=O)N2C1 | 33.5 | > 21 | 27.4 | 38.5 | 31.8 | 33.6 | 26.4 | 7.31 | 10.6 | 10.5 |
| O=C(NCCCNCCCCNCCCNC(=O)C(F)(F)F)C(F)(F)F | > 100 | > 100 | > 100 | > 100 | > 100 | > 100 | > 100 | > 100 | > 100 | > 100 |
| c1ccc(-c2ccc(N=NN3CCCC3)cc2)cc1 | > 100 | > 100 | > 100 | > 100 | > 100 | > 100 | > 100 | > 100 | > 100 | > 100 |
| CCN(C(=O)N[C@H](C(=O)N[C@@H](C)C(=O)OC)C(C)C)c1ccccc1 | > 100 | 43.4 | > 100 | > 100 | > 100 | > 100 | > 100 | 63.2 | > 100 | 98.6 |
| CC[P+](C#Cc1ccccc1)(c1ccccc1)c1ccccc1 | 21.2 | 2.59 | 10.4 | 11.9 | 8.94 | 10.8 | 12.3 | 6.2 | 5.41 | 7.09 |
| COn1cc(CO)c2ccccc21 | 3.67 | > 100 | > 100 | > 100 | > 100 | > 100 | > 100 | > 100 | > 100 | > 46.2 |
| C=C1CC=CC(C)(C)C1C/C=C(\C)C(O)CBr (stereo not given) | > 100 | > 100 | > 100 | > 100 | > 100 | > 100 | > 100 | > 100 | > 100 | > 100 |
| COc1ccc(N2C(=O)C3c4[nH]c5ccccc5c4C4C(C)CCCC4C3C2=O)cc1 (stereo not given) | > 100 | > 100 | > 100 | > 100 | > 96.2 | > 100 | > 100 | > 100 | > 100 | > 100 |
| Nc1n[nH]c2ccccc12 | > 100 | > 100 | > 100 | > 100 | > 100 | > 100 | > 100 | > 100 | > 100 | > 100 |
| O=C(O)c1cc2ccccc2c(S(=O)(=O)O)c1O | > 100 | > 100 | > 100 | > 100 | > 100 | > 100 | > 100 | > 100 | > 100 | > 100 |
| CC(C)(C)OC(=O)c1ccc(NCc2cc(O)ccc2O)cc1 | 19.5 | 5.48 | 43.3 | 12 | 41.3 | 18.4 | 5.59 | > 55.2 | 5.28 | 6.07 |
| CC1OC(n2cc(F)c(=O)[nH]c2=O)C(O[Si](C)(C)C(C)(C)C)C1O[Si](C)(C)C(C)(C)C (stereo not given) | 27.3 | 27.4 | 26.8 | 31.6 | 43.7 | 35.7 | 16.8 | 28.9 | 24.9 | 22.9 |
| COC1OC2COC(C)(C)OC2C2OC(C)(C)OC12 (stereo not given) | > 100 | > 100 | > 100 | > 100 | 61.1 | > 100 | > 100 | > 100 | 67.1 | > 100 |
| OCC1OC(O[C@H]2CN3[C@H](O)[C@@H](O)[C@H](O)[C@H]3C2O)C(O)C(O)C1O (stereo not given in full) | > 100 | > 100 | > 100 | > 100 | > 100 | > 100 | > 100 | > 100 | > 100 | > 100 |
| COC(=O)C(CCSC)NC(=O)CSc1nnc(COc2ccc(Cl)cc2)n1-c1ccccc1 (stereo not given) | 46.7 | 34.9 | 33 | 75.3 | 23.8 | 41.8 | 31.8 | 36.3 | 33.1 | 33.3 |
| CC1=C(C(=O)NNC(=O)CC#N)CC(C(=O)NNC(=O)CC#N)=C(C)N1 | > 100 | > 100 | > 100 | > 100 | > 100 | > 100 | > 100 | > 100 | > 100 | > 100 |
